Experimental data as given in US20230241088A1, “COMPOSITION FOR PREVENTING OR TREATING LUNG CANCER COMPRISING ORTHO-TOPOLIN RIBOSIDE AS ACTIVE INGREDIENT” (CHUNG-ANG UNIVERSITY INDUSTRY-ACADEMY COOPERATION FOUNDATION, priority 2022, published 2023).
Read-outs that look alike come from different tables or passages of the source.

Assays:
[1] = test system: A549 cells; assay: BrdU cell proliferation assay; format: cell-based, Human
Procedure: The siRNA sequences for ERK1/2 (5′-CCCUGACCCGUCUAAUA-3′ SEQ ID NO: 1), AKT (5′-GAAGGAAGU CAUCGUGCCCAA-3′ SEQ ID NO: 2), and scrambled siRNA (SN-1001-CFG) were purchased from Bioneer (Daejeon, Korea). Cells were transfected with siRNA using Lipofectamine 3000 (Invitrogen, Carlsbad, Calif., USA) according to the manufacturer's instructions.
The 5-bromo-2-deoxyuridine (BrdU) cell proliferation assay was performed according to a previously described method. A549 cells (1×10^4) were grown to approximately 70-80% confluency in 96-well plates and treated with oTR (5, 10, and 50 μM) for 48 hours in the presence or absence of U0126, wortmannin, siERK1/2, and siAKT. Cell proliferation was measured using the Cell Proliferation ELISA, BrdU (colorimetric) kit (Roche Diagnostics, Penzberg, Germany), according to the manufacturer's instructions.

[2] = test system: H522; assay: MTT cell viability assay, H522; format: cell-based, Human; details: 48 hours
Procedure: (§1) Human NSCLC cell lines A549, H1437, H2087, H522, and HCC827 were obtained from the Korean Cell Line Bank (KCLB, Seoul, Korea). These cells were cultured in RPMI-1640 medium (Gibco, N.Y., USA) supplemented with 10% FBS (Gibco) and 1% penicillin-streptomycin (HyClone Laboratories, Logan, Utah, USA). All cell lines were cultured under standard conditions (5% CO2, humid environment, 37° C.). A549 cells were seeded at a density of 1×10^4 cells/well and H1437, H2087, H522, HCC827, and MRCS cells at a density of 2×10^4 cells/well in 96-well plates and were cultured until cells reach approximately 70-80% confluency. The NSCLC cells were treated with plant hormones for 48 hours. Stock solution of each plant hormone was diluted with culture medium, wherein concentrations of DMSO, water, methanol, and ethanol in the culture medium were below 1% (v/v). The half-maximal inhibitory concentration (IC50) was calculated using CompuSyn software (ComboSyn Inc., Paramus, N.J., USA).
(§2) The inhibitory effect of plant hormones and their derivatives was investigated on 5 NSCLC cell lines (A549, H1437, H2087, H522, and HCC827). The NSCLC cells were treated with ABA, Cor, ethephon, GR-24, IAA, KR, MJ, N6b, N6i, oTR, and SS-HCS at concentrations of 0.1, 0.5, 1, 5, 10, 50, and 100 μM. Cell viability and IC50 values for 48 hours were investigated by performing the MTT assay.

[3] = test system: A549 cells tumor xenograft; details: for tumor volume compared to control group: after the second treatment (day 7)
Procedure: To evaluate the anticancer effect of oTR in tumor tissues, a tumor xenograft model was established by injecting 2.5×10^6 A549 cells into the flanks of nude mice (female, BALB/cSlc-nu/nu). After the tumor volume reached above 100 mm^3 after approximately 3 weeks, the mice were randomized into negative controls and experimental groups (5 mice were used per group). Mice were then injected with oTR solution into the tumor area twice a week for 3 weeks. oTR was dissolved in saline:DMSO (1:1, v/v), and 50 μL of oTR solution was injected into mice in a dose of 100 mg/kg or 150 mg/kg. […] Negative controls were injected with saline:DMSO (1:1, v/v) without oTR. Tumor volume, mouse body weight, and mouse survival were recorded twice a week before injecting oTR. Tumor length (a) and width (b) were measured using calipers and tumor volume (mm^3) was calculated by =(a×b^2)/2.
Tumor xenograft mice were treated with oTR at two doses (100 mg/kg and 150 mg/kg). The tumor volume was measured twice a week for 3 weeks to evaluate the therapeutic effects of the drug in vivo.

[4] = test system: A549 cells; assay: Glycolytic function analysis (Seahorse XFe24, glycoPER); format: cell-based, Human; details: oTR 5, 10, and 50 μM, 48 hours, FIG. 5A
Procedure: Mitochondrial and glycolytic functions were assessed using Seahorse XFe24 analyzer (Agilent Technologies, Lexington, Mass., USA). A549 cells were seeded in a cell culture plate at a density of 1.5×10^4 cells/well. Cells were treated with oTR (5, 10, and 50 μM) for 48 hours after achieving approximately 70-80% confluency. The glycolytic and mitochondrial functions were determined by measuring the proton efflux rate (PER) and oxygen consumption rate (OCR), respectively. Glycolytic PER (glycoPER) was obtained by subtracting mitochondria-derived protons from the total PER. The analyses were conducted according to the manufacturer's instructions.
To investigate real-time changes in cellular metabolic functions, glycoPER (pmol H+/min) and OCR were analyzed (FIG. 5). GlycoPER reflects glycolytic functions, and OCR reflects mitochondrial respiration. […] Measurement of compensatory glycolysis was achieved by blocking oxidative phosphorylation using rotenone/antimycin.

[5] = test system: A549 cells; assay: Measurement of H2O2 content; format: cell-based, Human; details: oTR 5, 10, and 50 μM, 48 hours, dose-dependent
Procedure: A549 cells were seeded at a density of 2×10^5 cells/mL in a 6-well plate and treated with oTR (5, 10, and 50 μM) or an equal volume of DMSO (control) for 48 hours. H2O2 content was measured according to a previously described method with some modifications added. Briefly, the cell pellets were extracted with 1 mL of 0.1% TCAA, and the extracts were homogenized and centrifuged at 15,000×g at 4° C. for 10 minutes. Potassium phosphate buffer (10 mM; 0.5 mL) and 1 M KI (1 mL) were added to 0.5 mL of the supernatant. The mixture was then incubated for 15 minutes at room temperature in the dark and measured at 390 nm. For normalization, protein concentration was determined using Bio-Rad protein assay kit with BSA as a standard.

[6] = test system: HCC827; assay: MTT cell viability assay, HCC827; format: cell-based, Human; details: 48 hours
Procedure: as §1, §2

OC[C@H]1O[C@@H](n2cnc3c(NCc4ccccc4O)ncnc32)[C@H](O)[C@@H]1O [oTR, ortho topolin riboside]
antiproliferative effect of oTR in presence of ERK inhibitors (U0126) or AKT inhibitors (wortmannin) ([1]; U0126 (20 μM) or wortmannin (5 μM), FIG. 6D): significantly weakened
cell proliferation (BrdU) ([1]; oTR 5, 10, and 50 μM, 48 hours, dose-dependent, FIG. 6A): significantly inhibited
oTR-induced antiproliferative activity in ERK or AKT knockdown cells ([1]; siERK 1/2 (200 nM) or siAKT (200 nM), FIG. 6D): significantly inhibited
IC50 [2]: 26.1 ± 2.47 µM
dose dependence of oTR-induced changes in tumor volume ([3]; 100 mg/kg vs 150 mg/kg): did not decrease in a dose-dependent manner
tumor volume compared to control group ([3]; 100 mg/kg): significantly decreased
tumor volume compared to control group ([3]; 150 mg/kg): significantly decreased
reduction of body weight relative to initial body weight ([3]; mouse, in vivo): ≤ 5%
basal and compensatory glycolytic rates (glycoPER) [4]: significant decrease
H2O2 content [5]: significantly increased
IC50 [6]: 29.7 ± 2.56 µM
